From PubChem BioAssay (NCI) come the findings set out here.

Common to all, as to assay: NCI tumour cell line growth inhibition, 48 h
Assay [1] deals with UO-31 renal.
In assay [2] the test system is MDA-MB-231 breast.
In assay [3] the test system is A498 renal.
The test system of assay [4] is UACC-62 melanoma.
In assay [5] the test system is K-562 leukemia.
Assay [6] deals with MOLT-4 leukemia.
In assay [7] the test system is MALME-3M melanoma.
Assay [8] deals with OVCAR-4 ovarian.
Assay [9] relates to SR leukemia.
Assay [10] deals with SNB-19 CNS.

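Each compound was tested at five concentrations against cells in 96-well plates for 48 hours. The concentration for 50% growth inhibition is given as GI50. Definition used: TGI = concentration required for complete inhibition of growth.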

In the case of `COC(OC)[C@@H]1OC[C@@H](O)[C@@H]1n1cnc2c(N)ncnc21`, the TGI in [1], in assay [2], in assay [3], in assay [4], in assay [5] and in assay [6] was above 100 µM throughout. For the same compound, the TGI in [7], in [8] and in assay [9] was above 100 µM in each case.
Consider `C[Si](C)(C)C1=C([Si](C)(C)C)C(Cl)(Cl)C1=O`, for which the TGI is 8.45 µM in assay [1]; 7.85 µM in [2]; 29.8 µM in assay [3]; 7.69 µM in assay [4]; 2.88 µM in [5]; 3.45 µM in [6]. For the same compound, the TGI in [10] is 36.5 µM; in assay [7], 4.22 µM; in assay [8] it was 12.5 µM; in [9], 5.46 µM.
Consider `CC(=O)N1CCn2c1nc1cc(Cl)ccc12`, for which the TGI in assay [2], in [3], in assay [4], in [5], in assay [6] and in assay [10] was above 100 µM throughout. Besides, the TGI in assay [7], in assay [8] and in [9] was above 100 µM each time.
Regarding `COc1ccc2c(OCc3nnc4ccc(-c5ccccc5)nn34)ccnc2c1`, the GI50 in assay [2] was above 20.3 µM; in assay [3], above 100 µM; in [4] it was above 100 µM; in [5], above 100 µM; in assay [6], above 100 µM; in [10], above 100 µM. In addition, the values for the GI50 in assay [7] and in assay [9] were above 100 µM and 5.64 µM, respectively. Moreover, the TGI in assay [2], in [3], in assay [4], in [5], in assay [6] and in [10] was above 100 µM each time. The TGI in assay [7] and in assay [9] was above 100 µM in each case.
Turning to `CC(=O)Oc1ccc(/C=C/C(=O)O[C@@H](C(=O)O)[C@@H](OC(=O)/C=C/c2ccc(OC(C)=O)c(OC(C)=O)c2)C(=O)O)cc1OC(C)=O`, the TGI in [1], in assay [2], in [3], in [4], in [5] and in assay [10] was above 100 µM each time. In addition, the TGI in [7], in [8] and in assay [9] was above 100 µM each time.
For `S=C(Nc1ccc2cn[nH]c2c1)Nc1ccc2cn[nH]c2c1`, the TGI in [1], in [2], in assay [3], in assay [4], in [5] and in [10] was above 100 µM each time. Besides, the TGI in [7], in assay [8] and in [9] was above 100 µM each time.
As to `CC1=NC(=Cc2ccc([N+](=O)[O-])cc2)C(=O)N1n1c(-c2ccccc2)nc2ccccc2c1=O`, the TGI was above 100 µM in assay [1]; above 100 µM in assay [2]; above 100 µM in [4]; above 100 µM in assay [5]; 72.5 µM in assay [6]; above 100 µM in assay [10]. Further, the TGI in assay [7] and in assay [9] was above 100 µM in each case.
Consider `COC(=O)c1ccc(Nc2nc3nc[nH]c3c(=O)[nH]2)cc1`, for which the TGI in assay [2], in assay [3], in assay [4], in assay [6], in assay [10] and in assay [7] was above 100 µM each time. The TGI in assay [8] and in assay [9] was above 100 µM each time.
For `CCOc1cc(NC(C)=O)ccc1C(=O)NN1C(=O)CSC1c1ccccc1` (stereo not given), the TGI is above 100 µM in assay [1]; above 100 µM in [2]; above 100 µM in [3]; above 100 µM in assay [4]; above 100 µM in assay [5]; 58.2 µM in assay [6]. Moreover, the TGI in assay [10], in assay [7], in [8] and in assay [9] was above 100 µM throughout.
`COc1ccc(/C=N/n2cnc3[nH]c(C)c(Cc4ccccc4)c3c2=N)cc1`: the TGI in assay [1], in assay [2], in assay [3], in assay [4], in assay [6] and in assay [10] was above 100 µM in each case. The TGI in [7], in [8] and in assay [9] was above 100 µM each time.
Take `CC(=N\N)/C(C)=N/N=C(C)/C(C)=N/N=C(C)/C(C)=N/N`: the TGI in assay [1], in [2], in assay [3], in assay [5], in [6] and in [10] was above 100 µM throughout. Besides, the TGI in assay [7], in assay [8] and in assay [9] was above 100 µM each time.
With `CCN(CC)c1ccc(/C=C/C=C2C(=O)NC(=S)NC2=O)cc1`, the TGI in assay [1] was above 100 µM; in assay [2], above 78.6 µM; in assay [3], above 100 µM; in assay [4], above 100 µM; in assay [5] it was above 75.1 µM; in assay [6], above 100 µM. Besides, the TGI in [10], in assay [7], in [8] and in assay [9] was above 100 µM each time.
Consider `CN(C)c1cccc(NC2=NCCO2)c1`, for which the TGI in [1], in [2], in assay [3], in assay [4], in assay [5] and in assay [6] was above 100 µM each time. For the same compound, the TGI in assay [10] is above 100 µM; in assay [7], above 100 µM; in assay [8], above 100 µM; in [9], 99.6 µM.
As to `C=CCOCn1cc(C)c(=O)[nH]c1=O`, the TGI in assay [1], in [2], in assay [3], in assay [4], in [5] and in assay [6] was above 100 µM in each case. In addition, the TGI in [10], in assay [7] and in assay [9] was above 100 µM in each case.
